Consider 2 compounds from patent US4452782A, “Pentadecapeptide” (Hoffmann-La Roche Inc., priority 1979, dated 1984).

One experiment has as its system C. albicans. The experiment can be described thus: Protective activity against lethal infection in mice immunosuppressed with 5-fluorouracil. It is filed as in vivo. The conditions noted are these: 5-fluorouracil 25 mg/kg/day × 10 i.p. alone; 1 × 10^5 i.v. The protocol: (§1) The effect was further extended against microbial infections in mice immunosuppressed by treatment of a cytostatic. Mice pretreated daily for 10 times with 5-fluorouracil (25 mg/kg/day, i.p.) were infected by either Ps. aeruginosa or C. albicans and the survivals were recorded on day 15.
(§2) C. albicans and Ps. aeruginosa were infected intravenously with 1 ×

In another experiment the test system is Ps. aeruginosa. The experiment is described as above. The note with it: 5-fluorouracil 25 mg/kg/day × 10 i.p. alone; 4 × 10^4 i.v. It is filed as in vivo. The protocol: as §1, §2
For experiment [1], the system named is Lewis lung carcinoma. As to the kind of experiment: Survival of mice with Lewis lung carcinoma in combination with cyclophosphamide and surgery (Table 8). It counts as in vivo. The note with it: cyclophosphamide 50 mg/kg i.p. × 1 alone. The protocol:
(§3) Lewis lung carcinoma (1×10^6) was implanted into footpad and at day 10 the advanced tumor was excised by amputation of the leg with the tumor developed. Then the mice were treated with cyclophosphamide (50 mg/kg, i.p.) 24 hrs later and at day 27 the dry weight of the tumor metastasized to lung was measured.
On the other hand, the effect of the peptide on survival of the mice, which were amputated the advanced tumor and treated with cyclophosphamide, was examined. The experimental conditions were identical to the above experiment except that the advanced tumor was excised at day 12 and the mice were treated with cyclophosphamide at day 13.

Experiment [2] relates to Lewis lung carcinoma. The experiment can be described thus: Suppression of growth of Lewis lung carcinoma metastasized to lung after amputation and cyclophosphamide (Table 7). The note with it: cyclophosphamide 50 mg/kg i.p. × 1 alone after amputation; day 27. It is filed as in vivo, mice. As for the experimental part:
The major problem in the treatment of cancer patient after surgical elimination of tumor is the prevention of metastasis of the tumor.
as §3

Regarding `O=c1[nH]cc(F)c(=O)[nH]1` [5-fluorouracil], the “Suppressive activity against lethal infection (survivals at day 15)” value was 5/35 in the experiment with C. albicans and 2/7 with Ps. aeruginosa.
With `O=P1(N(CCCl)CCCl)NCCCO1` (centres unmarked) [Cyclophosphamide], in the experiment with Lewis lung carcinoma [1], the “Survivals at day 100” value was 2/12. Moreover, the Mean survival days in the experiment with Lewis lung carcinoma [1] (days after tumor implantation) is on record as 32.6 ± 3.2 days. Besides, the “dry weight of the tumor metastasized (mg ± S.D.)” value in the experiment on Lewis lung carcinoma [2] came out at 45.9 ± 30.6 mg.
